# Test results taken from patent publication US11542266B1, “Substituted piperidines as BTK inhibitors” (HAISCO PHARMACEUTICALS PTE. LTD., priority 2019, dated 2023).
# Where a name gives a salt, the structure may show the parent alone. Read-outs that look alike come from different tables or passages of the source.
# How the values were obtained:
# [1] = tested on: SU-DHL-4 cells; assay: Inhibition of cell proliferation, SU-DHL-4 cells (Cell Viability Assay, 72 h); type: cell-based, human; settings: for SU-DHL-4 Max inhi. %: inhibition rate at the highest concentration of the compound
# Description: (§1) SU-DHL-4, Mino, and SU-DHL-6 cells, in the culture medium of RPMI1640+10% FBS, were cultured in an incubator at 37° C. under 5% CO2. Cells were plated in a 96-well plate. Specifically, SU-DHL-4 cells were at 20000/well, Mino and SU-DHL-6 cells were at 5000/well, with 90 μL/well. 10 μL of the compounds at different concentrations were added to each well. There were 3 replicate wells for each concentration, and the last column, added with DMSO, was used as a vehicle control group. The cultures were continued for 72 hours at 37° C. under 5% CO2. After 72 hours, 100 μL of detection reagent (Cell Viability Assay, Promega, G7573) was added to each well, and the cultures were uniformly mixed for 2 minutes, and incubated at room temperature for 10 minutes. The fluorescence signal value was measured with a microplate reader (PHERAstar FSX). The IC50 value of the compound on cell proliferation inhibition was calculated using Origin 9.2 software, and the inhibition rate at the highest concentration of the compound (Max inhi. %) was calculated according to formula (1). Max inhi. %=(1-T72 administration/T72 vehicle)×100 Formula (1).
# [2] = Pharmacokinetic experiment in rats (i.g. vehicle 0.5% MC); type: in vivo; settings: Sprague-Dawley (SD), rat, po; male SD rats, plasma, i.g. 20 mg/kg, vehicle 0.5% MC; read-out: AUC0-t
# Description: Objective: In this experiment, a single dose of each test compound was administered to SD rats intravenously and intragastrically, the concentrations of the test compound in plasma of rats were measured, and the pharmacokinetic characteristics and bioavailability of the test compound in rats were evaluated.
# Experimental animals: Male SD rats, 200-250 g, 6-8 weeks old, 6 rats/test compound. The experimental animals were purchased from CHENGDU DOSSY EXPERIMENTAL ANIMALS CO., LTD.
# Experimental method: On the day of the experiment, 6 SD rats were randomly grouped according to their body weight. The animals were fasted with water available for 12 to 14 hours one day before the administration of a test compound, and were fed 4 hours after the administration.
# Sampling: Before and after the administration, 0.1 ml of blood was taken from the orbit of the rats under isoflurane anesthesia, and placed in an EDTAK2 centrifuge tube. Centrifugation was carried out at 5000 rpm at 4° C. for 10 min and the plasma was collected.
# Time points for plasma collection in G1 group: 0, 5 m, 15 m, 30 m, 1 h, 2 h, 4 h, 6 h, 8 h, and 24 h.
# Time points for plasma collection in G2 group: 0, 15 m, 30 m, 1 h, 2 h, 4 h, 6 h, 8 h, and 24 h.
# Before analysis and detection, all samples were stored at −80° C. The samples were analyzed quantitatively by LC-MS/MS.
# [3] = tested on: Mino cells; assay: Inhibition of cell proliferation, Mino cells (Cell Viability Assay, 72 h); type: cell-based, human; settings: for Mino Max inhi. %: inhibition rate at the highest concentration of the compound
# Description: as §1
structure (smiles),measurement,setting,value
"Nc1ncnc2c1c(-c1ccc(Oc3ccccc3)cc1)nn2[C@@H]1CCCN(C2CCC(N3CC(Oc4ccc5c(c4)C(=O)N(C4CCC(=O)NC4=O)C5=O)C3)CC2)C1 (single isomer, unassigned) [Compound 34-b]",SU-DHL-4 Max inhi. %,[1],99.2%
"Nc1ncnc2c1c(-c1ccc(Oc3ccccc3)cc1)nn2C1CCN(c2cnc(N3CCC4(CC3)CN(c3ccc5c(c3)C(=O)N(C3CCC(=O)NC3=O)C5=O)C4)nc2)CC1 (stereo not drawn) [Compound 5, 5-[7-[5-[4-[4-amino-3-(4-phenoxyphenyl)pyrazolo[3,4-d]pyrimidin-1-yl]-1-piperidyl]pyrimidin-2-yl]-2,7-diazaspiro[3.5]nonan-2-yl]-2-(2,6-dioxo-3-piperidyl)isoindoline-1,3-dione]",AUC(0-t),[2],81.7 ± 68 ng·h/mL
"Nc1ncnc2c1c(-c1ccc(Oc3ccccc3)cc1)nn2C1CCN(C2CCC(N3CC(Oc4ccc5c(c4)C(=O)N(C4CCC(=O)NC4=O)C5=O)C3)CC2)CC1 (stereo not drawn) [Compound 36-b, 5-[1-[4-[4-[4-amino-3-(4-phenoxyphenyl)pyrazolo[3,4-d]pyrimidin-1-yl]-1-piperidyl]cyclohexyl]azetidin-3-yl]oxy-2-(2,6-dioxo-3-piperidyl)isoindoline-1,3-dione trifluoroacetate]",SU-DHL-4 Max inhi. %,[1]; trifluoroacetate,99.8%
"Nc1ncnc2c1c(-c1ccc(Oc3ccccc3)cc1)nn2C1CCN(Cc2cnc(N3CC4(CCN(c5ccc6c(c5)C(=O)N(C5CCC(=O)NC5=O)C6=O)CC4)C3)nc2)CC1 (stereo not drawn) [Compound 7, 5-[2-[5-[[4-[4-amino-3-(4-phenoxyphenyl)pyrazolo[3,4-d]pyrimidin-1-yl]-1-piperidyl]methyl]pyrimidin-2-yl]-2,7-diazaspiro[3.5]nonan-7-yl]-2-(2,6-dioxo-3-piperidyl)isoindoline-1,3-dione tritrifluoroacetate]",AUC(0-t),[2],105 ± 54 ng·h/mL
"Nc1ncnc2c1c(-c1ccc(Oc3ccccc3)cc1)nn2C1CCN(c2cnc(N3CC4(CCN(c5ccc6c(c5)C(=O)N(C5CCC(=O)NC5=O)C6=O)CC4)C3)nc2)CC1 (stereo not drawn) [Compound 4, 5-[2-[5-[4-[4-amino-3-(4-phenoxyphenyl)pyrazolo[3,4-d]pyrimidin-1-yl]-1-piperidyl]pyrimidin-2-yl]-2,7-diazaspiro[3.5]nonan-7-yl]-2-(2,6-dioxo-3-piperidyl)isoindoline-1,3-dione]",AUC(0-t),[2],36 ± 10 ng·h/mL
"Nc1ncnc2c1c(-c1ccc(Oc3ccccc3)cc1)nn2C1CCN(C2CN(C3CCN(C4CCN(C5CN(c6ccc7c(c6)C(=O)N(C6CCC(=O)NC6=O)C7=O)C5)CC4)CC3)C2)CC1 (stereo not drawn) [Compound 13, 5-[3-[4-[4-[3-[4-[4-amino-3-(4-phenoxyphenyl)pyrazolo[3,4-d]pyrimidin-1-yl]-1-piperidyl]azetidin-1-yl]-1-piperidyl]-1-piperidyl]azetidin-1-yl]-2-(2,6-dioxo-3-piperidyl)isoindoline-1,3-dione]",IC50,[3]; Homo sapiens,677 nM
same,IC50,[1]; Homo sapiens,70 nM
"Nc1ncnc2c1c(-c1ccc(Oc3ccccc3)cc1)nn2C1CCN(c2cnc(N3CC4CN(c5ccc6c(c5)C(=O)N(C5CCC(=O)NC5=O)C6=O)CC4C3)nc2)CC1 (stereo not drawn) [Compound 3, 5-[5-[5-[4-[4-amino-3-(4-phenoxyphenyl)pyrazolo[3,4-d]pyrimidin-1-yl]-1-piperidyl]pyrimidin-2-yl]-1,3,3a,4,6,6a-hexahydropyrrolo[3,4-c]pyrrol-2-yl]-2-(2,6-dioxo-3-piperidyl)isoindoline-1,3-dione tetratrifluoroacetate]",AUC(0-t),[2],211 ± 46 ng·h/mL
"Nc1ncnc2c1c(-c1ccc(Oc3ccccc3)cc1)nn2[C@@H]1CCCN(C2CCC(N3CC(Oc4ccc5c(c4)C(=O)N(C4CCC(=O)NC4=O)C5=O)C3)CC2)C1 (single isomer, unassigned) [Compound 34-a]",SU-DHL-4 Max inhi. %,[1],94.4%
"Nc1ncnc2c1c(-c1ccc(Oc3ccccc3)cc1)nn2C1CCN(C2CC3(CCN(c4ccc5c(c4)C(=O)N(C4CCC(=O)NC4=O)C5=O)CC3)C2)CC1 (stereo not drawn) [Compound 1, 5-[2-[4-[4-amino-3-(4-phenoxyphenyl)pyrazolo[3,4-d]pyrimidin-1-yl]-1-piperidyl]-7-azaspiro[3.5]nonan-7-yl]-2-(2,6-dioxo-3-piperidyl)isoindoline-1,3-dione]",AUC(0-t),[2],479 ± 197 ng·h/mL
"Nc1ncnc2c1c(-c1ccc(Oc3ccccc3)cc1)nn2C1CCN(C2CCC(N3CC(Oc4ccc5c(c4)C(=O)N(C4CCC(=O)NC4=O)C5=O)C3)CC2)CC1 (stereo not drawn) [Compound 36-a, 5-[1-[4-[4-[4-amino-3-(4-phenoxyphenyl)pyrazolo[3,4-d]pyrimidin-1-yl]-1-piperidyl]cyclohexyl]azetidin-3-yl]oxy-2-(2,6-dioxo-3-piperidyl)isoindoline-1,3-dione]",SU-DHL-4 Max inhi. %,[1],99.6%
"Nc1ncnc2c1c(-c1ccc(Oc3ccccc3)cc1)nn2C1CCN(C2C[C@@H]3CN(C4C[C@@H]5CN(c6ccc7c(c6)C(=O)N(C6CCC(=O)NC6=O)C7=O)C[C@@H]5C4)C[C@@H]3C2)CC1 (stereo partly drawn) [Compound 53, 5-((3aR,3′aR,6aS,6′aS)-5-(4-(4-amino-3-(4-phenoxyphenyl)-1H-pyrazolo[3,4-d]pyrimidin-1-yl)piperidin-1-yl)dodecahydro-1H-[2,5′-bi(cyclopenta[c]pyrrol)]-2′(1′H)-yl)-2-(2,6-dioxopiperidin-3-yl)isoindoline-1,3-dione trifluoroacetate]",Mino Max inhi. %,[3],99.6%
"Nc1ncnc2c1c(-c1ccc(Oc3ccccc3)cc1)nn2C1CCN(C2C[C@@H]3CN(C4CC5(CCN(c6ccc7c(c6)C(=O)N(C6CCC(=O)NC6=O)C7=O)CC5)C4)C[C@@H]3C2)CC1 (stereo partly drawn) [Compound 52, 5-(2-((3aR,6aS)-5-(4-(4-amino-3-(4-phenoxyphenyl)-1H-pyrazolo[3,4-d]pyrimidin-1-yl)piperidin-1-yl)hexahydrocyclopenta[c]pyrrol-2(1H)-yl)-7-azaspiro[3.5]nonan-7-yl)-2-(2,6-dioxopiperidin-3-yl)isoindoline-1,3-dione]",Mino Max inhi. %,[3],99.7%
"Nc1ncnc2c1c(-c1ccc(Oc3ccccc3)cc1)nn2C1CCN(C2CCC3(CC2)CN(C2CN(c4ccc5c(c4)C(=O)N(C4CCC(=O)NC4=O)C5=O)C2)C3)CC1 (stereo not drawn) [Compound 56, 5-(3-(7-(4-(4-amino-3-(4-phenoxyphenyl)-1H-pyrazolo[3,4-d]pyrimidin-1-yl)piperidin-1-yl)-2-azaspiro[3.5]nonan-2-yl)azetidin-1-yl)-2-(2,6-dioxopiperidin-3-yl)isoindoline-1,3-dione]",Mino Max inhi. %,[3],99.9%
"Nc1ncnc2c1c(-c1ccc(Oc3ccccc3)cc1)nn2C1CCN(C2CCN(C3CN(c4ccc5c(c4)C(=O)N(C4CCC(=O)NC4=O)C5=O)C3)C2)CC1 (stereo not drawn) [Compound 24, 5-[3-[3-[4-[4-amino-3-(4-phenoxyphenyl)pyrazolo[3,4-d]pyrimidin-1-yl]-1-piperidyl]pyrrolidin-1-yl]azetidin-1-yl]-2-(2,6-dioxo-3-piperidyl)isoindoline-1,3-dione]",IC50,[3]; Homo sapiens,629 nM
"Nc1ncnc2c1c(-c1ccc(Oc3ccccc3)cc1)nn2C1CCN(C2CCN(C3CN(c4ccc5c(c4)CN(C4CCC(=O)NC4=O)C5=O)C3)CC2)CC1 (stereo not drawn) [Compound 25, 3-[5-[3-[4-[4-[4-amino-3-(4-phenoxyphenyl)pyrazolo[3,4-d]pyrimidin-1-yl]-1-piperidyl]-1-piperidyl]azetidin-1-yl]-1-oxo-isoindolin-2-yl]piperidine-2,6-dione]",IC50,[3]; Homo sapiens,282 nM
"Nc1ncnc2c1c(-c1ccc(Oc3ccccc3)cc1)nn2C1CCN(C2CCN(C3CN(C4CCN(c5ccc6c(c5)C(=O)N(C5CCC(=O)NC5=O)C6=O)CC4)C3)C2)CC1 (stereo not drawn) [Compound 16, 5-[4-[3-[3-[4-[4-amino-3-(4-phenoxyphenyl)pyrazolo[3,4-d]pyrimidin-1-yl]-1-piperidyl]pyrrolidin-1-yl]azetidin-1-yl]-1-piperidyl]-2-(2,6-dioxo-3-piperidyl)isoindoline-1,3-dione]",Mino Max inhi. %,[3],99.7%
"Nc1ncnc2c1c(-c1ccc(Oc3ccccc3)cc1)nn2C1CCN(C2CCN(C3CN(c4ccc5c(c4)C(=O)N(C4CCC(=O)NC4=O)C5=O)C3)CC2F)CC1 (stereo not drawn) [Compound 46-1, trans-5-(3-(4-(4-amino-3-(4-phenoxyphenyl)-1H-pyrazolo[3,4-d]pyrimidin-1-yl)-3′-fluoro-[1,4′-bipiperidin]-1′-yl)azetidin-1-yl)-2-(2,6-dioxopiperidin-3-yl)isoindoline-1,3-dione-P1]",IC50,[3],27 nM
